PubChem BioAssay (NCI)
Where “and” joins values, the source holds several entries; their conditions need not be identical. Equal values may be shown once.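 Results reflect a 48-hour exposure of cells in 96-well plates to compound at five concentrations. At the GI50, growth is halved. TGI denotes the concentration required for complete inhibition of growth.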

Experiments:
Assay in all cases: NCI anticancer screen, dose series, 48 h
[1] = test system: SF-539 CNS
[2] = test system: SF-295 CNS
[3] = test system: SW-620 colon
[4] = test system: NCI/ADR-RES ovarian
[5] = test system: HOP-92 NSCLC
[6] = test system: HOP-62 NSCLC
[7] = test system: M14 melanoma
[8] = test system: OVCAR-4 ovarian
[9] = test system: NCI-H460 lung
[10] = test system: KM12 colon

| Compound | GI50 [1] | TGI [1] | GI50 [2] | TGI [2] | GI50 [3] | TGI [3] | GI50 [4] | TGI [4] | GI50 [5] | TGI [5] | GI50 [6] | TGI [6] | GI50 [7] | TGI [7] | GI50 [8] | TGI [8] | GI50 [9] | TGI [9] | GI50 [10] | TGI [10] |
| --- | --- | --- | --- | --- | --- | --- | --- | --- | --- | --- | --- | --- | --- | --- | --- | --- | --- | --- | --- | --- |
| O=c1cc(-c2ccccc2)oc2cc(OCCCCCN3CCOCC3)cc(O)c12 | > 100 µM | > 100 µM | 40.2 µM | > 100 µM | > 100 µM | > 100 µM | 72 µM | > 100 µM | 11 µM | 26.6 µM | 10.2 µM | 23.1 µM | > 100 µM | > 100 µM | > 100 µM | > 100 µM | 90.1 µM | > 100 µM | > 100 µM | > 100 µM |
| CCC[n+]1cc2cc3c(cc2c2c1-c1cc4c(cc1C2)OCO4)OCO3 (tested in a mixture with another compound) | 0.425 µM | 2.88 µM | 0.47 µM | 6.37 µM | 0.733 µM | 12.8 µM | > 85.5 µM | > 100 µM | 0.683 µM | 4.07 µM | 0.546 µM | 6.53 µM | 2.49 µM | 7.81 µM | 0.853 µM | 5.9 µM | 0.337 µM | 4.39 µM | 0.374 µM | 5.33 µM |
| CCCS(=O)c1nc(COC(=O)NC)c(COC(=O)NC)n1C (stereo not given) | – | > 100 µM | – | > 100 µM | – | > 100 µM | – | > 100 µM | – | > 100 µM | – | > 100 µM | – | > 100 µM | – | > 100 µM | – | > 100 µM | – | > 100 µM |
| COc1cc2c(NC3CCN(C(C)C)CC3)nc(C3CCCCC3)nc2cc1OCCCN1CCCC1 | 1.79 µM | 3.48 µM | 2.52 µM | 6.55 µM | 2.15 µM | 6.45 µM | 24.9 µM | > 78.8 µM | 3.48 µM | 15.6 µM | 3.22 µM | 10.1 µM | 1.71 µM | 3.26 µM | 5.36 µM | 15.9 µM | 3.45 µM | 12.9 µM | 3.07 µM | 12.6 µM |
| [Cl][Hg][c]1ccc2ccccc2c1 | 2.02 µM | 4.73 µM | 7.01 µM | 18.9 µM | 1.77 µM | 3.62 µM | 2.41 µM | 8.84 µM | 1.92 µM | 3.46 µM | 3.93 µM | 11.8 µM | 1.46 µM | 2.96 µM | 2.69 µM | 6.71 µM | 4.18 µM | 23.8 µM | 7.66 µM | 22.6 µM |
| Oc1ccc(Cl)cc1Sc1cc(Cl)ccc1O | 3.14 µM | 37.2 µM and 11.2 µM | 2.37 µM | 30.9 µM and 6.43 µM | 4.02 µM | 39.6 µM and 13.8 µM | 2.48 µM | 57.8 µM and 7.47 µM | 0.421 µM | 9.71 µM and 3.43 µM | 3.04 µM | 32.9 µM and 12 µM | 3.83 µM | 26 µM and 12.7 µM | 3.4 µM | 22.9 µM and 13.5 µM | 3.45 µM | 24.8 µM and 9.2 µM | 3.26 µM | 31.4 µM and 9.18 µM |
